Measurements from ChEMBL document CHEMBL1909046, “DrugMatrix in vitro pharmacology data”.

How the values were obtained:
[1] = molecular target: T1, Nitric oxide synthase, inducible (Mus musculus, UniProt P29477); set-up: species or system Escherichia coli;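 further: inhibition of iNOS enzyme activity measured with L-arginine as substrate; in other assays of this panel Not Active means under 50% inhibition at 10 µM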
T1 sequence (P29477 whole entry): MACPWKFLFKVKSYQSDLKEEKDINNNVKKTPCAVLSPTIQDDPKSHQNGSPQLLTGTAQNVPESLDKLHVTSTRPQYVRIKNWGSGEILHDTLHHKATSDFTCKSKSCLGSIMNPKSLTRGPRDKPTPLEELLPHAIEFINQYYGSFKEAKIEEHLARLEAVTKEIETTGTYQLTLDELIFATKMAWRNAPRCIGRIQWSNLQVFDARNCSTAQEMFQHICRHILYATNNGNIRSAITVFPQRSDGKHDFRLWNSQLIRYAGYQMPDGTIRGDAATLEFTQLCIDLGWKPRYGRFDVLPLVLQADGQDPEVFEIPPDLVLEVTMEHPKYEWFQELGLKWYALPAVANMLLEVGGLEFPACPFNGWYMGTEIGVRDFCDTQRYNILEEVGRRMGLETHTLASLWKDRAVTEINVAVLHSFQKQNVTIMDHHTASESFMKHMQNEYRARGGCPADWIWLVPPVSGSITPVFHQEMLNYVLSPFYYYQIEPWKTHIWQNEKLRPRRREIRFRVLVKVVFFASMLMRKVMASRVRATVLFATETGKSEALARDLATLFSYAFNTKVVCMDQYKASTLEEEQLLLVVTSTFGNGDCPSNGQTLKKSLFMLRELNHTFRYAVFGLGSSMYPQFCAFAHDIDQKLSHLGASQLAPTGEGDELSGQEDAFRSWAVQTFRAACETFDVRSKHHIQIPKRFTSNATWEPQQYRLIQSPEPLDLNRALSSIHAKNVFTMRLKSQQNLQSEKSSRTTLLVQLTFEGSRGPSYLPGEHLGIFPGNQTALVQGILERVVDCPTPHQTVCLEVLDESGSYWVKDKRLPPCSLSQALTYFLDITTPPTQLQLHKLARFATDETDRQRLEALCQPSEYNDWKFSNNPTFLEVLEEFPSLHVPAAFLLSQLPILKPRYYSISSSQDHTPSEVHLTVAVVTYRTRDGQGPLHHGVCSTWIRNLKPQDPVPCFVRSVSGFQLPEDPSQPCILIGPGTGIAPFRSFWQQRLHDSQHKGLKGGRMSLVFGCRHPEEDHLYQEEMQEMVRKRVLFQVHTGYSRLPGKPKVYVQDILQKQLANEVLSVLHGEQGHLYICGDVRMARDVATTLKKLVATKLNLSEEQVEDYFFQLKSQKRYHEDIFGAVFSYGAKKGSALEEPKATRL

Cytochrome P450 2D6 = Cytochrome P450 2D6 (Homo sapiens, UniProt P10635); settings: bti-tn-5b1-4; further: in other assays of this panel Not Active means under 50% inhibition at 10 µM
[2] = DRUGMATRIX: ATPase, Na+/K+ enzyme inhibition (substrate: ATP); assay type: tissue-based, Sus scrofa, Heart; settings: Not Active = under 50% inhibition at 10 µM
Adenosine receptor A3 = molecular target: T2, Adenosine receptor A3 (Homo sapiens, UniProt P0DMS8); assay type: cell membranes, CHO-K1, Membrane; settings: cho-k1;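 further: radioligand binding assay with AB-MECA serving as the labeled ligand; in other assays of this panel Not Active means under 50% inhibition at 10 µM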
T2 sequence (P0DMS8 whole entry): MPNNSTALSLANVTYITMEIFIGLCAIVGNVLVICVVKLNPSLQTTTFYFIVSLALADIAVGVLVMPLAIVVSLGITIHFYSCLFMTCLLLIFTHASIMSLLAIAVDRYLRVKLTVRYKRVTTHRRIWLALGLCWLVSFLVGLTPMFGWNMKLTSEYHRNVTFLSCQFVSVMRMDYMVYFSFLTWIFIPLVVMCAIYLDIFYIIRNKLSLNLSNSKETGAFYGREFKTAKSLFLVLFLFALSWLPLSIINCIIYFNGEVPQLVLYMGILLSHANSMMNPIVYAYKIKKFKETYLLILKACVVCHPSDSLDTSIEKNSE

[3] = molecular target: Aldo-keto reductase family 1 member B1 (Rattus norvegicus, UniProt P07943); assay type: tissue-based, Lens of camera-type eye;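 further: inhibition of aldose reductase enzyme activity, measured with DL-glyceraldehyde as the substrate; in other assays of this panel Not Active means under 50% inhibition at 10 µM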
[4] = molecular target: Sodium-dependent noradrenaline transporter (Homo sapiens, UniProt P23975); experiment: DRUGMATRIX: Norepinephrine Transporter radioligand binding (ligand: [125I] RTI-55); assay type: cell membranes, MDCK, Membrane; settings: Not Active = under 50% inhibition at 10 µM
Sequence of Sodium-dependent noradrenaline transporter (P23975 whole entry): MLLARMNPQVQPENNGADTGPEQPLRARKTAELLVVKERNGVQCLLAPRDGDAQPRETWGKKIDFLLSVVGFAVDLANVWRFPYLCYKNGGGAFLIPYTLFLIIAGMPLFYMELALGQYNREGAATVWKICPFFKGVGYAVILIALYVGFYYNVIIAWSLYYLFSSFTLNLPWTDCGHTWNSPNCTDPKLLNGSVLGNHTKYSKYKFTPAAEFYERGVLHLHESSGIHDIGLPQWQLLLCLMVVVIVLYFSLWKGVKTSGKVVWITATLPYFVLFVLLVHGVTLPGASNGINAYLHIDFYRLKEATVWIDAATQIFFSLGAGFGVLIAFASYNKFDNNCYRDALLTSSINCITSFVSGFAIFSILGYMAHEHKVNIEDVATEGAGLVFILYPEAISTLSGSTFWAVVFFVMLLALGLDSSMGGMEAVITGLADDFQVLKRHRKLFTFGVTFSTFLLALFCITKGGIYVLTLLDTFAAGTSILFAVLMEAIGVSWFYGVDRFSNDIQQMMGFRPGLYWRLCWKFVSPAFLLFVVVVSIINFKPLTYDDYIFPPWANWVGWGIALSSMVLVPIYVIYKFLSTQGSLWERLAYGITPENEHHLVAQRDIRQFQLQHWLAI

Sequence of Cytochrome P450 2D6 (P10635 whole entry): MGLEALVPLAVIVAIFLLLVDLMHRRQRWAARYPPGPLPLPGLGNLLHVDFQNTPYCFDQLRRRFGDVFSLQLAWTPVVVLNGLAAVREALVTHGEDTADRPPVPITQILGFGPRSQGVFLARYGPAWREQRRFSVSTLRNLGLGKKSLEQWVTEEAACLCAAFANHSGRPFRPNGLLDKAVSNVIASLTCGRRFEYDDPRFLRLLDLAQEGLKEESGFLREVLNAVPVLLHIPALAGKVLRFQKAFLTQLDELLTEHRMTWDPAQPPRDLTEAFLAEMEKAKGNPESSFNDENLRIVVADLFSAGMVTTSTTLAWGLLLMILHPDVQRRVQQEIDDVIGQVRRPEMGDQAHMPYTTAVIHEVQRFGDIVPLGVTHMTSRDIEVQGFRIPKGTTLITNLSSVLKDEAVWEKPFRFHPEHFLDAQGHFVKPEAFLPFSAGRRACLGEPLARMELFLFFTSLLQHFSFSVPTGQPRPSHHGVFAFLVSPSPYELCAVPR

SMILES	IC50 [1]	IC50 (Cytochrome P450 2D6)	Ki (Cytochrome P450 2D6)	IC50 [2]	Ki [2]	IC50 (Adenosine receptor A3)	IC50 [3]	IC50 ([4]; mdck)	IC50 ([4]; read-out: IC50) [µM]	Ki ([4]; read-out: Ki) [µM]
C[C@@H]1C[C@H]2[C@@H]3CCC4=CC(=O)C=C[C@]4(C)[C@@]3(F)[C@@H](O)C[C@]2(C)[C@H]1C(=O)CO [DESOXIMETASONE]	Not Active	Not Active	Not Active	Not Active	Not Active	Not Active	Not Active	Not Active	–	–
CN(C)CC[C@@H](c1ccc(Cl)cc1)c1ccccn1 [DEXCHLORPHENIRAMINE]	Not Active	Not Active	Not Active	Not Active	Not Active	Not Active	Not Active	–	4.97	4.92
C[C@@H]1CC[C@@]2(OC1)O[C@H]1[C@@H](O)[C@H]3[C@@H]4CC[C@H]5C[C@@H](O[C@@H]6O[C@H](CO)[C@H](O[C@@H]7O[C@H](CO)C(O)[C@H](O[C@@H]8OC[C@@H](O)[C@H](O)[C@H]8O)[C@H]7O[C@@H]7O[C@H](CO)[C@H](O)[C@H](O[C@@H]8O[C@H](CO)[C@@H](O)[C@H](O)[C@H]8O)[C@H]7O)[C@H](O)[C@H]6O)[C@H](O)C[C@]5(C)[C@H]4CC[C@]3(C)[C@H]1[C@@H]2C (some centres not stated) [DIGITONIN]	Not Active	Not Active	Not Active	Not Active	Not Active	Not Active	Not Active	Not Active	–	–
C[C@H]1O[C@@H](n2cc(F)c(=O)[nH]c2=O)[C@H](O)[C@@H]1O [DOXIFLURIDINE]	Not Active	Not Active	Not Active	Not Active	Not Active	Not Active	Not Active	Not Active	–	–
Cn1c(=O)c2c(ncn2CC(O)CO)n(C)c1=O (configuration not stated) [DYPHYLLINE]	Not Active	Not Active	Not Active	Not Active	Not Active	Not Active	Not Active	Not Active	–	–
CC[C@H]1CN2CCc3cc(OC)c(OC)cc3[C@@H]2C[C@@H]1C[C@H]1NCCc2cc(OC)c(OC)cc21 [EMETINE]	Not Active	Not Active	Not Active	Not Active	Not Active	Not Active	Not Active	Not Active	–	–
C[C@@H](CO)NC(=O)[C@@H]1C=C2c3cccc4[nH]cc(c34)C[C@H]2N(C)C1 [ERGONOVINE]	Not Active	Not Active	Not Active	Not Active	Not Active	Not Active	Not Active	Not Active	–	–
COC(=O)CCc1ccc(OCC(O)CNC(C)C)cc1 (configuration not stated) [ESMOLOL]	Not Active	Not Active	Not Active	Not Active	Not Active	Not Active	Not Active	Not Active	–	–
CCC1(C)CC(=O)NC1=O (configuration not stated) [ETHOSUXIMIDE]	Not Active	Not Active	Not Active	Not Active	Not Active	Not Active	Not Active	Not Active	–	–
C#C[C@]1(OC(C)=O)CC[C@H]2[C@@H]3CCC4=C[C@@H](OC(C)=O)CC[C@@H]4[C@H]3CC[C@@]21C [ETHYNODIOL DIACETATE]	Not Active	Not Active	Not Active	Not Active	Not Active	Not Active	Not Active	Not Active	–	–
C=CCc1ccc(O)c(OC)c1 [EUGENOL]	Not Active	Not Active	Not Active	Not Active	Not Active	Not Active	Not Active	Not Active	–	–
CC(C(=O)O)c1cccc(Oc2ccccc2)c1 (configuration not stated) [FENOPROFEN]	Not Active	Not Active	Not Active	Not Active	Not Active	Not Active	Not Active	Not Active	–	–
